Test results as given in patent publication US11820758B2, “NEK6 kinase inhibitors useful for the treatment of solid tumors” (CONSIGLIO NAZIONALE DELLE RICERCHE, priority 2018, dated 2023).
Like-named read-outs stand apart in the source and are kept apart here.

Assays:
PEO-1 [1] = test: cells; conditions: Homo sapiens, PEO1, 72 h, read-out: IC50 (nM ± SEM)
Experimental: In order to prepare the cytotoxicity experiments the cells were trypsinized, counted with NEUBAUER chamber and plated in black plate having 96 wells per line (Perkinelmer). MDA-MB231, PEO-1, COV318, SW948, NCI-H1975 and NCI-H1299, were plated at 100,000 cells/ml, HCT-15 and MCF-7 at 40,000 cells/ml, In each well of the plate 200 μl of cell suspension were added. […] Parallelly, the single curves of each drug and of C8 were performed.
After 72 h from the addition of the compounds and/or drugs, the effect on the cell growth was evaluated by using the kit ATPlite (PerkinElmer) following the manufacturer's specifications. The luminescence signal was read at the instrument ENspire (PerkElmer). For each treated line, the % of inhibition of the growth with respect to the control and IC50 was calculated with software GraphPad Prism5 Software (San Diego, CA, USA). The combination index (CI) was calculated by using the program Compusyn (downloadable from www.combosyn.com), for the analysis of the combined effects of drugs based upon the equation of Chou-Talalay (Chou-Talalay, Adv Enzyme Regul 1984; 22:27-55). CI<1, =1, and >1 designates synergism, additive effect and antagonism, respectively.
PEO-1 were plated (100,000 cells/ml) in a 96-well black plate. In each well of the plate 200 μl of cell suspension were added.

NEK6 [2] = molecular target: T1, NEK6 (Homo sapiens, UniProt Q9HC98); test: LANCE-Ultra NEK6 kinase assay; type: biochemical; conditions: for IC50: LANCE-Ultra, 4 nM NEK6, 50 nM ULight-p70 S6K peptide, 100 μM ATP, 90 min, average of 4 experiments ± SEM, read-out: IC50 of NEK6 activity inhibition; for NEK6 activity inhibition in screening: single concentration 30 μM, FIG. 1
Experimental: FIG. 1. NEK6 activity inhibition. Bar graph representing the results of the screening of several compounds at 30 μM by using LANCE-Ultra NEK6 kinase assay (PerkinElmer) incubated with 4 nM NEK6, 50 nM ULight-p70 S6K Peptide and 100 μM ATP for 90 minutes at room temperature. As control inhibitor quercetin was used.
FIG. 2. FIG. 2 represents the molecules identified with inhibitory activity on NEK6 by using LANCE-Ultra NEK6 kinase assay (PerkinElmer). The curves represent the % of NEK6 activity depending upon the inhibitor concentration. A) The compound 8 (ZINC05007751) is capable of inhibiting the NEK6 activity with 1050=3.4±1.2 μM; B) the compound 21 (ZINC04384801) inhibits NEK6 at 1050=2.6±0.05 μM. The IC50 value derives from the average of IC50s of 4 independent experiments±SEM. Each point of the curve represents the average of a triplicate±SEM of a representative experiment.
The compounds in powder (Molport, Riga, LV-1011, Latvia) were dissolved in DMSO 100% at a stock concentration of 10 mM. The fresh compounds were tested initially at a single concentration (30 μM) with LANCE NEK6 Ultra Kinase Assays (Perkin Elmer, Monza (MB)), whereas the remaining solution was aliquoted, kept at −20° C. and used for the enzymatic inhibition curves of the selected compounds. The reaction was performed in 384-OptiPlate™-384 (PerkinElmer #6007290) white plates, by using as reagents the Europium-labeled anti-phospho-p70 S6K (Thr389) Antibody (PerkinElmer #TRF0214), ULight-p70 S6K (Thr389) (PerkinElmer #TRF0126), NEK6 (Carna, Chuo-ku, Kobe, Japan, #05-130), LANCE® Detection Buffer, 10×(PerkinElmer #CR97-100), ATP (Sigma-Aldrich, Saint Louis, U.S.A, #A2383). NEK6, ATP and the compounds were diluted in Kinase Buffer (50 mM HEPES pH 7.5, 1 mM EGTA, 10 mM MgCl2, 2 mM DTT and 0.01% Tween-20), and where necessary DMSO was added to obtain a concentration of 0.3% in the final reaction volume. For the initial screening the compounds were tested at the final concentration of 30 μM, final DMSO 0.3% in kinase buffer and incubated with 4 nM NEK6, 50 nM ULight-p70 S6K Peptide and 100 μM ATP, in a reaction volume of 10 μL for 90 minutes at room temperature. As control inhibitor quercetin (Molport #001-740-557) was used. For the enzymatic inhibition curves, the selected compounds C8 (Molport #002-933-483), C21 (Molport #000-911-820) were diluted serially (dilutions 1:2) from 30 μM to 0.9375 μM (final concentrations: 30 μM; 15 μM; 7.5 μM; 3.75; 1.875 μM; 0.9375 μM in 0.3% DMSO) and incubated under the same conditions. […] After the film removal, the signal was read at the Enspire (PerkinElmer) plate reader (excitation 320 nm and emission at 665 nm). The % of enzymatic activity of NEK6 was calculated with respect to the control (100% activity), after subtracting the white of the experiment.

NEK6 [3] = molecular target: T1, NEK6; test: Off-chip Mobility Shift Assay (MSA); type: biochemical; conditions: CDK7 peptide 1000 nM, 5 h
Experimental: The inhibitory activity on NEK6 of the compounds C8 and C21 was checked with the technique of Off-chip Mobility Shift Assay (MSA) (CARNA Biosciences Study ID: CBS170097, CARNA Biosciences, Kobe). […] PKR inhibitor was used as positive control. […] of solution 4× of the compounds, […] of 4× Substrate/ATP/Metal solution, and […] of 2× kinase solution were prepared with the reaction buffer (20 mM HEPES, 0.01% Triton X-100, 1 mM DTT, pH7.5), mixed and incubated in wells of polypropylene in 384-well plate for 5 hours at room temperature. Afterwards, […] of Termination Buffer (QuickScout Screening Assist MSA; Carna Biosciences) were added. One proceeded with analysing the reaction with LabChip system (Perkin Elmer), by separating and quantizing the peaks of product and substrate. The kinase reaction was then evaluated based upon the ratio (P/(P+S)) calculated based upon the heights of peak of peptides product (P) and substrate (S). The reading value of the control reaction (complete reaction mix) was placed as 0% of inhibition and the bottom value (Enzima (−)) was placed as 100% of inhibition, then the inhibition percentage of each sample was calculated. The value of IC50 was calculated by means of a logistic model at 4 parameters of the inhibition curves by adaptation to a four-parameter logistic curve.

MDA-MB-231 = test: Cytotoxicity (ATPlite, 72 h) on MDA-MB-231; type: cell-based, human; conditions: MDA-MB-231 (breast), read-out: IC50 values (μM ± SEM)
Experimental: (§1) The compounds C8 and C21 identified in the previous assay of enzymatic activity were tested on 8 tumour cell lines representative of different solid tumours: MDA-MB231 and MCF7 (mammary tumour; ATCC, LGC Standards S.r.L, Sesto San Giovanni, MI), PEO1 and COV318 (ovarian tumour; ECACC, Saltssbury, UK), HCT-15 and SW948 (colon tumour; ECAC and ATCC, Sesto San Giovanni, MI), NCI-H1975 and NCI-H1299, (lung tumour; ATCC). Through experiments of cytotoxicity the capability of such compounds of inhibiting the cell growth was evaluated.
(§2) The cell lines were kept in culture in 75-cm^2 average flasks in atmosphere humidified with 5% CO2/95% air in the following media: DMEM supplemented with 10% FBS, 1% Kanamycin, 1% amino acids not essential for MDA-MB231 and MCF7; RPMI 10% FBS, 1% Kanamycin, 1% amino acids not essential for COV318, NCI-H1975 and NCI-H1299, with addition of 2 mM Sodium Pyruvate for PEO-1; RPMI 20% FBS, 1% Kanamycin, 1% amino acids not essential for HCT-15; LEIBOVITZ'S L15, 10% FBS, 1% Kanamycin, 1% amino acids not essential for SW948. All reagents were purchased at Sigma-Aldrich (St. Louis, MO) if not otherwise specified.
24 h after plating the compounds were added in quadruplicate at the following concentrations: C8 (6 μM; 12 μM; 24 μM; 48 μM; 96 μM; 192 μM) and C21 (8 μM; 16 μM; 32 μM; 64 μM; 128 μM; 256 μM). […] Similarly, the compound 21 inhibits the growth by 50% at 75±12 μM.

MCF-7 = test: Cytotoxicity (ATPlite, 72 h) on MCF-7; type: cell-based; conditions: Homo sapiens, MCF7, MCF-7 (breast), read-out: IC50 values (μM ± SEM)
Experimental: as §1, §2
(§3) MCF-7 were plated (40,000 cells/ml) in a 96-well black plate. […] 24 h after plating the compounds were added in quadruplicate at the following concentrations: C8 (6 μM; 12 μM; 24 μM; 48 μM; 96 μM; 192 μM) and C21 (8 μM; 16 μM; 32 μM; 64 μM; 128 μM; 256 μM).

HCT-15 = test: Cytotoxicity (ATPlite, 72 h) on HCT-15; type: cell-based, human; conditions: HCT-15 (colon), read-out: IC50 values (μM ± SEM)
Experimental: as §1, §2
as §3, with “HCT-15” for “MCF-7”, “μM). […] The compound 21 has no inhibitory activity (IC50>100 μM), (Table 1).” for “μM).”

SW948 = test: Cytotoxicity (ATPlite, 72 h) on SW948; type: cell-based; conditions: Homo sapiens, SW948 (colon), read-out: IC50 values (μM ± SEM)
Experimental: as §1, §2
(§4) 24 h after plating the compounds were added in quadruplicate at the following concentrations: C8 (6 μM; 12 μM; 24 μM; 48 μM; 96 μM; 192 μM) and C21 (8 μM; 16 μM; 32 μM; 64 μM; 128 μM; 256 μM).

COV318 = test: Cytotoxicity (ATPlite, 72 h) on COV318; type: cell-based; conditions: Homo sapiens, COV318 (ovary), read-out: IC50 values (μM ± SEM)
Experimental: as §1, §2, §4

NCI-H1975 = test: Cytotoxicity (ATPlite, 72 h) on NCI-H1975; type: cell-based; conditions: Homo sapiens, NCI-H1975 (lung), read-out: IC50 values (μM ± SEM)
Experimental: as §1, §2, §4

NCI-H1299 = test: Cytotoxicity (ATPlite, 72 h) on NCI-H1299; type: cell-based, human; conditions: NCI-H1299 (lung), read-out: IC50 values (μM ± SEM)
Experimental: as §1, §2
24 h after plating the compounds were added in quadruplicate at the following concentrations: C8 (6 μM; 12 μM; 24 μM; 48 μM; 96 μM; 192 μM) and C21 (8 μM; 16 μM; 32 μM; 64 μM; 128 μM; 256 μM). […] The compound 21 has no inhibitory activity (IC50>100 μM), (Table 1).

PEO-1 [4] = test: Cytotoxic effect of compound 8 in combination with Cisplatin in PEO-1; type: cell-based, human; conditions: PEO-1, 72 h; IC50 of cisplatin alone or with C8 fixed at 44 μM; read-out: IC50 (μM ± SEM)
Experimental: Cisplatin (Sigma-Aldrich, St. […] The luminescence signal was read at the instrument […]). […] Parallelly, the single curves of Cisplatin and compound 8 were performed. […] Pharmacol Rev. 2006; 58:621-81).

PEO-1 [5] = test: Cytotoxicity (ATPlite, 72 h) on PEO-1; type: cell-based; conditions: Homo sapiens, PEO1, 72 h, PEO-1 (ovary), read-out: IC50 values (μM ± SEM)
Experimental: as §1, §2
24 h after plating the compounds were added in quadruplicate at the following concentrations: C8 (6 μM; 12 μM; 24 μM; 48 μM; 96 μM; 192 μM) and C21 (8 μM; 16 μM; 32 μM; 64 μM; 128 μM; 256 μM). […]

T1 sequence (Q9HC98 whole entry): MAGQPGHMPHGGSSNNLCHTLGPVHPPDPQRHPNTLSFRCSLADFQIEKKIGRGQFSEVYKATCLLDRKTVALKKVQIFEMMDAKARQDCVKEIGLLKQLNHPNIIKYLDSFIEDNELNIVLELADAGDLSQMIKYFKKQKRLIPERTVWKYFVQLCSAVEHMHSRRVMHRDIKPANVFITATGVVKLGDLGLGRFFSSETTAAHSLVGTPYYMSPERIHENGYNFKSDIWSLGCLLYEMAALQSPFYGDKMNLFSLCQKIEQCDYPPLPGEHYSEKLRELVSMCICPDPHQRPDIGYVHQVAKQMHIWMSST

Row | IC50 (PEO-1 [1]) | Structure (SMILES) | IC50 (NEK6 [2]) | NEK6 activity inhibition in screening (NEK6 [2]) | IC50 (NEK6 [3]) | IC50 (MDA-MB-231; Homo sapiens, MDA-MB-231, 72 h) | IC50 (MDA-MB-231) | IC50 (MCF-7) | IC50 (HCT-15) | IC50 (HCT-15; Homo sapiens, HCT-15, 72 h) | IC50 (SW948) | IC50 (COV318) | IC50 (NCI-H1975) | IC50 (NCI-H1299; Homo sapiens, NCI-H1299, 72 h) | IC50 (NCI-H1299) | IC50 (PEO-1 [4]) | IC50 (PEO-1 [5])
1 | 7 ± 0.001 nM | CC(=O)O[C@H]1C(=O)[C@@]2(C)[C@H]([C@H](OC(=O)c3ccccc3)[C@]3(O)C[C@H](OC(=O)[C@H](O)[C@@H](NC(=O)c4ccccc4)c4ccccc4)C(C)=C1C3(C)C)[C@]1(OC(C)=O)CO[C@@H]1C[C@@H]2O [Paclitaxel] | – | – | – | – | – | – | – | – | – | – | – | – | – | – | –
2 | – | CC1=C(C#N)C(O)=NC(=O)/C1=C\c1ccc(-c2ccccc2)o1 [C8, (5Z)-2-hydroxy-4-methyl-6-oxy-5-[(5-phenylfuran-2il)methylidene]-5,6-dihydropyridine-3-carbonitrile] | 3.4 ± 1.2 µM | most active | 13.8 µM | < 100 µM | 65 ± 15 µM | > 100 µM | 98.5 ± 0.5 µM | < 100 µM | > 100 µM | > 100 µM | > 100 µM | < 100 µM | 87.8 ± 10 µM | – | –
3 | – | N.N.[Cl][Pt][Cl] [Cisplatin] | – | – | – | – | – | – | – | – | – | – | – | – | – | 7.9 ± 0.65 µM | –
4 | – | Nc1nc2c(c(=O)[nH]1)C(c1ccccc1)C1=C(N2)c2ccccc2C1=O (stereo not drawn) [C21, 6-amino-2-phenyl-5,7,9-triazatetracycle[8.7.0.0^3,^8.0^11,^16]heptadeca 1(10),3(8),6,11,13,15 hexaene-4, 17-dione] | 2.6 ± 0.05 µM | most active | 49.8 µM | < 100 µM | 75 ± 12 µM | > 100 µM | – | > 100 µM | > 100 µM | > 100 µM | > 100 µM | > 100 µM | – | – | > 100 µM
